Solubility data for ten molecules are collected here from patent US20150329467A1, “FLUORINE ATOM-CONTAINING PHENOL COMPOUND” (FUJIFILM CORPORATION, priority 2012, published 2015).

“Also recorded” adds a separate entry of the source.

This series is described as follows: Solubility check: coated film of Cytop CTL-809M fluororesin solution observed by optical microscope for bleed-out or undissolved compound. The format is physicochemical. The following applies: compound at 0.3 wt % with respect to Cytop CTL-809M in perfluorotributylamine/1,1,1,3,3,3-hexafluoropropan-2-ol/Cytop CTL-809M=91/5/4 (parts by weight); film 1.5 μm on glass, dried. Here is the method: To a mixed solution of perfluorotributylamine/1,1,1,3,3,3-hexafluoropropan-2-ol/Cytop CTL-809M (manufactured by Asahi Glass Co., Ltd.)=91/5/4 (parts by weight), was added the compound represented by formula (1) according to the invention (any of Compounds 1-1 to 1-8) or Comparative Compound C-1 or C-2 as shown below in an amount of 0.3 wt % with respect to the Cytop CTL-809M. Thereafter, the mixed solution was applied onto a glass substrate to a film thickness of 1.5 μm and dried.
As for `CC(C)(C)c1cc(CCC(=O)OCC(F)(F)C(F)(F)C(F)(F)C(F)(F)C(F)(F)C(F)(F)C(F)(F)C(F)(F)C(F)(F)F)cc(C(C)(C)C)c1O` [Compound 1-1], the Solubility entry is “Compatible”.

Regarding `CC(C)(C)c1cc(CCC(=O)OCC(O)CC(F)(F)C(F)(F)C(F)(F)C(F)(F)C(F)(F)C(F)(F)C(F)(F)C(F)(F)F)cc(C(C)(C)C)c1O` (stereo not shown) [Compound 1-2], the Solubility entry was “Compatible”. The entry for `Cc1cc(CCC(=O)OCC(F)(F)C(F)(F)C(F)(F)C(F)(F)C(F)(F)C(F)(F)C(F)(F)C(F)(F)C(F)(F)F)cc(C(C)(C)C)c1O` [Compound 1-3] is “Compatible”; for `CC(C)(C)c1cc(CCC(=O)OCC(F)(F)C(F)(F)C(F)(F)C(F)(F)C(F)(F)C(F)(F)C(F)(F)C(F)(F)F)cc(C(C)(C)C)c1O` [Compound 1-4] it is “Compatible”; for `CC(C)(C)c1cc(CCC(=O)OCCC(F)(F)C(F)(F)C(F)(F)C(F)(F)C(F)(F)C(F)(F)F)cc(C(C)(C)C)c1O` [Compound 1-5] it is “Compatible”. The same measure for `Cc1cc(CCC(=O)OCC(F)(F)C(F)(F)C(F)(F)C(F)(F)C(F)(F)C(F)(F)C(F)(F)C(F)(F)C(F)(F)F)cc(C)c1O` [Compound 1-6]: “Compatible”; for `CC(C)(C)c1cc(CCC(=O)OC(CO)CC(F)(F)C(F)(F)C(F)(F)C(F)(F)C(F)(F)C(F)(F)F)cc(C(C)(C)C)c1O` (stereo not shown) [Compound 1-7]: “Compatible”; for `Cc1cc(CCC(=O)OCC(F)(F)C(F)(F)C(F)(F)C(F)(F)C(F)(F)C(F)(F)C(F)(F)C(F)(F)C(F)(F)C(F)(F)F)cc(C)c1O` [Compound 1-8]: “Compatible”. The same measure for `CCCCCCCCCCOC(=O)CCc1cc(C(C)(C)C)c(O)c(C(C)(C)C)c1` [Compound C-1, reference compound]: “remained partially undissolved; also recorded: Remain partially”; for `CC(C)(C)c1cc(CCC(=O)OCC(O)CC(F)(F)C(F)(F)C(F)(F)F)cc(C(C)(C)C)c1O` (stereo not shown) [Compound C-2, reference compound]: “bled out on the resin surface; also recorded: Bleed out (a compound which bleeds out is denoted by “Bleed out,”)”.
